Assay results as given in patent publication US20220296547A1, “METHODS AND COMPOSITIONS FOR TREATMENT OF DISEASES” (Tranexamic Technologies, LLC, priority 2020, published 2022).
“Also recorded” adds a separate entry of the source.

What was measured:
[1] = system: histone H3; assay: Acetylation of histone H3 on lysine 27 and lysine 9; format: cell-based
[2] = system: PAI-1; assay: PAI-1 levels in MDA-MB-231 breast cancer cell extracts; format: cell-based; conditions: FIG. 6
Description: (§1) None of the treatments altered the overall pattern of protein tyrosine phosphorylation. […] Cleavage of CDCP1 may play a role in driving tumor invasion given the preferential binding of the cleaved form of CDCP1 with cell adhesion molecules such as beta1-integrin and E-cadherin.

[3] = system: histone lysine acetylation; assay: Histone lysine acetylation in BT474 cells; format: cell-based
[4] = system: MCF10A cells overexpressing the MYC oncogene; assay: MTT assay, MYC overexpressing versus vector control cells; format: cell-based, human
Description: (§2) The N-Myc-related gene c-Myc, or MYC, is frequently overexpressed in many human cancers, including breast cancer.

[5] = system: AKT in MDA-MB-468 human breast cancer cell line; assay: AKT activity (phospho-AKT substrate antibody); format: cell-based
Description: as §2

[6] = system: CDCP1 cleavage; assay: CDCP1 cleavage in MDA-MB-231 breast cancer cell extracts; format: cell-based
Description: as §1

[7] = system: non-melanoma skin cancer; conditions: mice, long-term UV irradiation; cited from earlier work
[8] = system: BT474, MDA-MB-468, B16, KPPC, HMEC and HaCaT cell lines; assay: DNA synthesis (tritiated thymidine incorporation), cell line panel; format: cell-based; conditions: 24 h treatment, 0 to 8%, DNA synthesis during a 3 h window
[9] = system: HCI-001 breast cancer cells; assay: MTT cell viability assay; format: cell-based
[10] = system: MDA-MB-468 breast cancer cells; assay: Markers of the mitotic phase (cyclin B, MPM2); format: cell-based, human; conditions: 1%
[11] = system: broad array of cancer and epithelial cell lines; assay: MTT cell viability assays with increasing concentrations (FIG. 2, FIG. 5); format: cell-based
[12] = system: MDA-MB-468 cells; assay: MTT cell viability assay (FIG. 2); format: cell-based, human; conditions: MDA-MB-468, known to overexpress MYC
[13] = system: HCI-012/LVM2/LR10 drug-resistant, HER2+, metastatic breast cancer; assay: Breast tumor growth in patient-derived model; format: in vivo, mice; conditions: orally, once daily, 375 mg/kg
[14] = molecular target: T1, plasmin (Homo sapiens, UniProt P00747); conditions: cited from earlier work
Target sequence in this assay (P00747 581-810 limits assumed, species assumed): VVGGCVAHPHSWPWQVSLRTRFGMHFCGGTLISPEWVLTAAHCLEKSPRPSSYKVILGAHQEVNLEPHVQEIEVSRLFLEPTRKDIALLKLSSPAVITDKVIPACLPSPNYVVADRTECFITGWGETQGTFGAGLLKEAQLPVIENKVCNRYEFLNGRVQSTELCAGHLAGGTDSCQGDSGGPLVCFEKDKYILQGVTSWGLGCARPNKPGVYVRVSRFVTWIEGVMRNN
Target sequence in this assay (P00747 97-580 partner limits assumed, species assumed): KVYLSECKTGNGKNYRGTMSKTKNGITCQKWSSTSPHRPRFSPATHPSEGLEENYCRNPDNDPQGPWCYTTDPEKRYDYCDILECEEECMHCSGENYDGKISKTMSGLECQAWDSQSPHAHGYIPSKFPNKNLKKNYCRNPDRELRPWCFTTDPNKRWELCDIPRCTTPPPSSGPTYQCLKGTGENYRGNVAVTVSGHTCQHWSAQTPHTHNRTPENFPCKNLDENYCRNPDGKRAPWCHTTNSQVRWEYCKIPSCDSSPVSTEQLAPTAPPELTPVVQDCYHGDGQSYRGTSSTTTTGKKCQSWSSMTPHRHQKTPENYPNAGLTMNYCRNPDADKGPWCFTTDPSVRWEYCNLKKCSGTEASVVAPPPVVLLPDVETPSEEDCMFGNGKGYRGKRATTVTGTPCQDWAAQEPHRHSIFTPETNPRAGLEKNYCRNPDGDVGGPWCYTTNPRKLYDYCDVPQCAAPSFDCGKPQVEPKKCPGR

[15] = system: BT474 breast cancer cells; assay: Markers of the mitotic phase (cyclin B, MPM2); format: cell-based; conditions: 1%
[16] = system: BT474 breast cancer cells; assay: DNA synthesis (tritiated thymidine incorporation); format: cell-based; conditions: 24 h treatment, 0 to 8%
[17] = molecular target: T1, plasmin; conditions: accepted value from studies; cited from earlier work
Target sequence in this assay (P00747 20-810 limits assumed): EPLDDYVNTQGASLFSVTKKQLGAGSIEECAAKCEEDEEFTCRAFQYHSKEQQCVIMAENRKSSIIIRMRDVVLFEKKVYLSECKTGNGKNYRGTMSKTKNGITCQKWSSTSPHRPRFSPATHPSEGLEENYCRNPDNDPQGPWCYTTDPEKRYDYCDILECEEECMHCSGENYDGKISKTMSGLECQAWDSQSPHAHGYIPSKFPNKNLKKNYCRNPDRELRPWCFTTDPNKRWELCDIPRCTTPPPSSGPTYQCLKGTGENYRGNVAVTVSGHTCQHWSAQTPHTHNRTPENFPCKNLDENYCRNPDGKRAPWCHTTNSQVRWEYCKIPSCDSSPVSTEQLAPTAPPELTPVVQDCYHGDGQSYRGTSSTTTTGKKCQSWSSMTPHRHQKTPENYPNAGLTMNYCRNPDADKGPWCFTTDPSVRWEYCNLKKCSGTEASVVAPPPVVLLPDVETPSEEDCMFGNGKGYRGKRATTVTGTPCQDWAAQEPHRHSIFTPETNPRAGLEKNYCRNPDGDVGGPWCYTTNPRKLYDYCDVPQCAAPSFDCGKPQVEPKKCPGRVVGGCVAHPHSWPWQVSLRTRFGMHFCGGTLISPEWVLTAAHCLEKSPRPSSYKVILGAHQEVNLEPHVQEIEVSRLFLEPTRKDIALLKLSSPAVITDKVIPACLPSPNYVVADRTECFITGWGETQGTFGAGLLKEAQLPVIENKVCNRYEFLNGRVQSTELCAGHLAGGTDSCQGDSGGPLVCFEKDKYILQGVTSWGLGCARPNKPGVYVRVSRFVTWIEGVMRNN

[18] = system: programmed death-ligand 1 (PD-L1); assay: PD-L1 expression (FIG. 18); format: cell-based; conditions: high concentration (2%)
[19] = system: MDA-MB 468 cells; assay: MTT assay with tranexamic acid derivatives; format: cell-based, human; conditions: MDA-MB 468, 72 h, increasing concentrations
Experimental: MDA-MB 468 cells were plated at 6,250 cells per well in a 96-well plate and incubated overnight at 37° C. […] Cell viability was evaluated using an MTT assay.

[20] = system: SH-SY5Y neuroblastoma cells; assay: MTT cell viability assay; format: cell-based
[21] = system: cell cycle; assay: Cell cycle study; format: cell-based
[22] = system: protein lysine acetylation in a second breast cancer cell line; assay: Protein lysine acetylation over time (FIG. 10); format: cell-based; conditions: as early as 4 h
[23] = system: human keratinocytes (HaCaT); assay: DNA synthesis (tritiated thymidine incorporation); format: cell-based; conditions: HaCaT non-transformed epithelial line; 24 h
[24] = system: AKT in MYC overexpressing MCF10A cells; assay: AKT activity (phospho-AKT substrate antibody); format: cell-based, human
Description: as §2

[25] = system: epidermal growth factor receptor (EGFR); assay: EGFR expression (FIG. 8); format: cell-based
[26] = system: STAT3; assay: STAT3 phosphorylation; format: cell-based
Description: as §2

[27] = intravenous doses of 80-100 mg/kg and above, e.g. during heart surgery; cited from earlier work
[28] = system: S6K1 (p70s6k); assay: Ribosomal S6 protein phosphorylation; format: cell-based
Description: as §2

[29] = system: lysine acetylation of cellular proteins; assay: Lysine acetylation of cellular proteins and histones (FIG. 8); format: cell-based
[30] = molecular target: p300 acetyltransferase enzyme (Homo sapiens, UniProt Q09472); assay: p300 acetyltransferase enzyme assays (immunoblot H3K9Ac / H3K27Ac); conditions: two sets of enzyme assays
Sequence of p300 acetyltransferase enzyme (Q09472 whole entry): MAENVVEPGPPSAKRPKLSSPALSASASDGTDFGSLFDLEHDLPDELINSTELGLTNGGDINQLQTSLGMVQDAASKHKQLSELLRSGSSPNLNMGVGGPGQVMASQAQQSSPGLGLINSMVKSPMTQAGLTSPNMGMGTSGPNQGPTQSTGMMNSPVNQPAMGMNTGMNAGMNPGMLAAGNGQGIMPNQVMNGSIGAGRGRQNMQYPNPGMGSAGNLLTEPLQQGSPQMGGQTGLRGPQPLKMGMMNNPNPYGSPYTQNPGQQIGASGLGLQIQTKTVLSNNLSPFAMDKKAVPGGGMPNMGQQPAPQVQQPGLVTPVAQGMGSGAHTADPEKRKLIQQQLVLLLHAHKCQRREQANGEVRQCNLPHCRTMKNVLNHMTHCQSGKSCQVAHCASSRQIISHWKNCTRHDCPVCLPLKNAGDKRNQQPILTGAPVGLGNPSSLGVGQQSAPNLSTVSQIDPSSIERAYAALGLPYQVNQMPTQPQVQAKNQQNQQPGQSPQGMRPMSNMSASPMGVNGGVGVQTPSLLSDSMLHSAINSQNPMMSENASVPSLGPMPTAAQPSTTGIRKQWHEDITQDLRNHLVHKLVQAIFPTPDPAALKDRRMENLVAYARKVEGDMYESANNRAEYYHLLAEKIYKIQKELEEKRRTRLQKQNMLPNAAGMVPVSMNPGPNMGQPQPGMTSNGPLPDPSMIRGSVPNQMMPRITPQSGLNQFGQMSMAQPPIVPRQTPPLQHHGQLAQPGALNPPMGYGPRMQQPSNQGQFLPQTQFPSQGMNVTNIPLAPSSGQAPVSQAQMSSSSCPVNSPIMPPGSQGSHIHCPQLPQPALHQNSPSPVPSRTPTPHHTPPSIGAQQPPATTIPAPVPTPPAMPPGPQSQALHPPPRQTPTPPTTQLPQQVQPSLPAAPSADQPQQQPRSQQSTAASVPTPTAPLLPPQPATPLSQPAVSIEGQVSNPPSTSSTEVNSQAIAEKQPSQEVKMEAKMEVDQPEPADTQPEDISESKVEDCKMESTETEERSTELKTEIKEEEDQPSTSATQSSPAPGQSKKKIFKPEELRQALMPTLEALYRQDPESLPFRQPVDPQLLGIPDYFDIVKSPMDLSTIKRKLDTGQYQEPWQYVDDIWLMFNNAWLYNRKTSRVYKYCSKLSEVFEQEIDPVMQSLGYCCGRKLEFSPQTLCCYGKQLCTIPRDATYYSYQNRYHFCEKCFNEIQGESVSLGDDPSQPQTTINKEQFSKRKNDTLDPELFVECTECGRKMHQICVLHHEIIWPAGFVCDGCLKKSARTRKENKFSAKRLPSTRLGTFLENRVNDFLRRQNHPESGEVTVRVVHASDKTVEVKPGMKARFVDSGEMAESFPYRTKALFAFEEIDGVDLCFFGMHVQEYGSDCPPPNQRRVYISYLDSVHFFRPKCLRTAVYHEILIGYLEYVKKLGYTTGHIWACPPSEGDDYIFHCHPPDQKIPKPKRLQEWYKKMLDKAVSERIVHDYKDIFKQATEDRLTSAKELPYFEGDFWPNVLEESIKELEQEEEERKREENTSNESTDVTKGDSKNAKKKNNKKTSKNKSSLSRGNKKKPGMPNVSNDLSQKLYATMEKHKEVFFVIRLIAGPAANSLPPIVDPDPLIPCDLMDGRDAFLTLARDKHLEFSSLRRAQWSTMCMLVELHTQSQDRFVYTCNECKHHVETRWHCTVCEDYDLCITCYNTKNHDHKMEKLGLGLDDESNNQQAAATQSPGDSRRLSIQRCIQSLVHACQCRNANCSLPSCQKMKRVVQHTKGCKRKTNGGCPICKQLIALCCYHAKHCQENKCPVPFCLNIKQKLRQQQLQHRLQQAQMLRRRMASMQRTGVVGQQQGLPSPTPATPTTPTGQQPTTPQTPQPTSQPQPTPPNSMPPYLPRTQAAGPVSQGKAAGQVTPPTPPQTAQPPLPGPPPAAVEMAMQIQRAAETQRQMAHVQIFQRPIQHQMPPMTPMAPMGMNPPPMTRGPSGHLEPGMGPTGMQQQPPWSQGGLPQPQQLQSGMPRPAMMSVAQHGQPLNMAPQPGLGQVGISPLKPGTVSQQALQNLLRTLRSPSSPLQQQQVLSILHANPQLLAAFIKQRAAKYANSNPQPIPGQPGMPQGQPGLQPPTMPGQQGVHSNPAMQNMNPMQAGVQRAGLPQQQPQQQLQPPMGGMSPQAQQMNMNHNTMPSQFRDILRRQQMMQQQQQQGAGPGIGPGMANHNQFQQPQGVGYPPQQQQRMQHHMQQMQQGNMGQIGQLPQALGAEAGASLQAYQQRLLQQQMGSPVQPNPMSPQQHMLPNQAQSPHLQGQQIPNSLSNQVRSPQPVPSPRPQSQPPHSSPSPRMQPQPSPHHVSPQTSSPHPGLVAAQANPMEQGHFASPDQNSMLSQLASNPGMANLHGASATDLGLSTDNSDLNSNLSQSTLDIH
Experimental: This is measured by immunoblotting with antibodies that specifically recognize histone 3 (H3) acetylated (Ac) on lysine (K) number 9 or 27.

[31] = system: human mammary epithelia cells (HMEC); assay: DNA synthesis (tritiated thymidine incorporation); format: cell-based; conditions: HMEC non-transformed epithelial line; 24 h

NC[C@H]1CC[C@H](C(=O)O)CC1 [tranexamic acid]
acetylation of histone H3 on lysine 9 ([1]; carried out by other enzymes): not on lysine 9
acetylation of histone H3 on lysine 27 ([1]; carried out by p300 and CBP): blocks acetylation
PAI-1 levels / expression [2]: without increasing PAI-1 levels
effect on histone acetylation in presence of the histone deacetylase inhibitor SAHA [3]: did not overcome the effects of the histone deacetylase inhibitor SAHA
histone lysine acetylation ([3]; particularly at higher concentrations): suppressed histone lysine acetylation
sensitivity of MYC overexpressing cells versus unaltered control cells (MTT) [4]: significant increase in tranexamic acid sensitivity; also recorded: significantly more sensitive
AKT activity [5]: suppressed AKT activity
CDCP1 cleavage at lowest concentration ([6]; 0.5%): good inhibition of CDCP1 cleavage
CDCP1 cleavage ([6]; MDA-MB-231 breast cancer cell extracts): blocks CDCP1 cleavage
non-melanoma skin cancer development [7]: reduced
plasma MMP-9 and IL-6, skin plasmin, CC chemokine 2, macrophages, STAT3, cyclin D and VEGF-A [7]: suppresses increases
DNA synthesis / cell proliferation across cell lines [8]: suppresses the proliferation; also recorded: affected all the cell lines examined
cell viability (MTT) [9]: decreased viability
markers of the mitotic phase of the cell cycle (cyclin B, MPM2) [10]: elevates markers of the mitotic phase
cell viability (MTT) across cell lines [11]: all lines are inhibited; also recorded: dose dependently suppresses the viability
sensitivity compared to other cell lines tested (MTT) [12]: most sensitive
tumor growth versus vehicle (water) [13]: suppresses tumor growth more effectively than a vehicle
plasmin protease activity [14]: directly inhibits plasmin protease activity
markers of the mitotic phase of the cell cycle (cyclin B, MPM2) [15]: elevates markers of the mitotic phase
sensitivity of DNA synthesis compared to other cell lines [16]: most sensitive to low concentrations
blood concentration required to inhibit formation of plasmin and provide antifibrinolysis [17]: 10 to 20 µg/mL
PD-L1 expression [18]: did not
cell viability (MTT) [19]: reduced MDA-MB 468 cell viability
cell viability (MTT) ([20]; SH-SY5Y neuroblastoma cells): decreased viability
sensitivity compared to other cell lines tested (MTT) ([20]; SH-SY5Y, N-Myc amplified / MYC overexpressed): most sensitive
cell cycle arrest [21]: causes G2/M-phase cell cycle arrest
protein lysine acetylation [22]: reduces protein lysine acetylation
proliferation (DNA synthesis) [23]: affects the proliferation
AKT activity [24]: suppressed AKT activity
expression of EGFR ([25]; FIG. 8): decreases expression
EGFR downregulation ([25]; FIG. 8, as worded): did not increase
STAT3 phosphorylation on Serine 727 [26]: not Serine 727
STAT3 phosphorylation on Tyrosine 705 [26]: decreases STAT3 phosphorylation on Tyrosine 705
seizure risk [27]: risk of seizure
p70s6k inhibition [28]: inhibits p70s6k
phosphorylation of the ribosomal S6 protein [28]: reduced phosphorylation of the ribosomal S6 protein
histone acetylation compared with vehicle treatment [29]: suppressed histone acetylation
levels of lysine acetylation of cellular proteins [29]: reduces the levels of lysine acetylation
p300 acetyltransferase activity [30]: inhibits p300 activity
proliferation (DNA synthesis) [31]: affects the proliferation
